According to US12581252B2, “Substituted pyrrolo[3,4-b]pyridines as PI3K-α inhibitors” (Relay Therapeutics, Inc., priority 2020, dated 2026):
pIC50: −log10 of the molar value.

Target: H1047R PIK3CA enzyme (Homo sapiens, UniProt P42336, H1047R)
Test: ADP-Glo Biochemical PIK3CA Kinase Assay

Sequence of H1047R PIK3CA enzyme (P42336 whole entry H1047R): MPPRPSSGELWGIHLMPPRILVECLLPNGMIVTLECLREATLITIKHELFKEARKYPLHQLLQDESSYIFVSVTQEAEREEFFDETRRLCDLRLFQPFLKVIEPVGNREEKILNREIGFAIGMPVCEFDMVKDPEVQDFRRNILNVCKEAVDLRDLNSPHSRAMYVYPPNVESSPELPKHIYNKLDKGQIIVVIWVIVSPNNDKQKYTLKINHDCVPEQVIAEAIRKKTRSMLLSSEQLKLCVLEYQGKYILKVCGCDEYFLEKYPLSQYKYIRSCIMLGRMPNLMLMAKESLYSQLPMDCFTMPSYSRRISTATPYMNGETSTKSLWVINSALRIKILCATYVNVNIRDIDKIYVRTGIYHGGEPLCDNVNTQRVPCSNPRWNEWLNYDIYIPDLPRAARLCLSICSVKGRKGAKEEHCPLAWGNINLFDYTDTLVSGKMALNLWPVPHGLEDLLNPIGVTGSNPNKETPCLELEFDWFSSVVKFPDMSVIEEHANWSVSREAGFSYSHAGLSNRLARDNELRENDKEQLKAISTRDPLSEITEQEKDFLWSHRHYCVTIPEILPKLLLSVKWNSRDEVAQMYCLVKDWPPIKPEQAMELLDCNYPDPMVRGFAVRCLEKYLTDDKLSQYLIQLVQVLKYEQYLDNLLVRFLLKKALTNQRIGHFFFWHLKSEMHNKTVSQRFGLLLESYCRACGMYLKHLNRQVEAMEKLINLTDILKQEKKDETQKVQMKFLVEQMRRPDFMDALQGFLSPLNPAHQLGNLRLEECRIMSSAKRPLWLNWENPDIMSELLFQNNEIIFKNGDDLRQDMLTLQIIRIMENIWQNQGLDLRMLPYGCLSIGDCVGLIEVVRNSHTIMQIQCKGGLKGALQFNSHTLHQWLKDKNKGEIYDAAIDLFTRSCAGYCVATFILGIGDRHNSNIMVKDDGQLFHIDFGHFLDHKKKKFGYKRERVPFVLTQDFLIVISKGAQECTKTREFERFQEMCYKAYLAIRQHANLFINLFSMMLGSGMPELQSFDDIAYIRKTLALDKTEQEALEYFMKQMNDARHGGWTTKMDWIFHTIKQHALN
Sequence of H1047R PIK3CA enzyme (P27986 whole entry partner): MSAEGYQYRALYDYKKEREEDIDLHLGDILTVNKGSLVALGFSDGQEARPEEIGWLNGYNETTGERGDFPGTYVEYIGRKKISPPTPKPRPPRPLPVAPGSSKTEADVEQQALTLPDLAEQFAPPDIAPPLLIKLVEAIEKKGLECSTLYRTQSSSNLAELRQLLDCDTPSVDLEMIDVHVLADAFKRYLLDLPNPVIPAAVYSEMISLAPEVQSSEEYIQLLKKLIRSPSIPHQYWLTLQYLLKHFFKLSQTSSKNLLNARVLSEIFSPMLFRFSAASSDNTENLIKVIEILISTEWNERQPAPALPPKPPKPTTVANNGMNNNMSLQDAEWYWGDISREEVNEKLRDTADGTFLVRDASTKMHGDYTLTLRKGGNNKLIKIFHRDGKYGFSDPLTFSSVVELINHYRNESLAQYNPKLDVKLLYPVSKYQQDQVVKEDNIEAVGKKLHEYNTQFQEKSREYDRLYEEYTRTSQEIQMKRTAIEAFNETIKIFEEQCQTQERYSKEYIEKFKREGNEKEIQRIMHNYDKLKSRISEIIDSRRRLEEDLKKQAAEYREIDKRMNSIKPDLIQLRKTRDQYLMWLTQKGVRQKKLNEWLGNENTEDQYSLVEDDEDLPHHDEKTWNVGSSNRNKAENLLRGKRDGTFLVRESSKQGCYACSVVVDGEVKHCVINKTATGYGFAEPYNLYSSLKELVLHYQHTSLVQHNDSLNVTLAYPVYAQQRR

| SMILES | pIC50 |
| --- | --- |
| COCCOc1cc(NC(=O)c2cc(F)cc(C(F)(F)F)c2)c2c(c1)C(=O)NC2c1cc(F)ccc1Cl (centres unmarked) [Compound I-977] | 6.30 to 7.00 |
| COc1cc(C(=O)Nc2cc(Br)cc3c2C(c2cc(F)ccc2C(F)F)NC3=O)cc(F)c1F (centres unmarked) [Compound I-436] | 6.30 to 7.00 |
| Cc1ncc(-c2cc(NC(=O)c3cc(F)cc(C(F)(F)F)c3)c3c(c2)C(=O)N[C@H]3c2cc(F)ccc2Cl)cn1 [Compound I-784] | ≥ 7.00 |
| CC(C)(O)COc1ncc(-c2cc(NC(=O)c3cc(F)cc(C(F)(F)F)c3)c3c(c2)C(=O)NC3c2cc(F)ccc2Cl)cn1 (centres unmarked) [Compound I-1529] | ≥ 7.00 |
| O=C(Nc1cc(Oc2ncncc2F)cc2c1C(c1cc(F)ccc1Cl)NC2=O)c1cc(F)cc(C(F)(F)F)c1 (centres unmarked) [Compound I-1246] | ≥ 7.00 |
| N#Cc1cnc2ccc(-c3cc(NC(=O)c4cc(F)cc(C(F)(F)F)c4)c4c(c3)C(=O)N[C@H]4c3cc(F)ccc3Cl)cn12 [Compound I-1443] | ≥ 7.00 |
| Cc1ccccc1C1NC(=O)c2cccc(Nc3cc4ccccc4nn3)c21 (centres unmarked) [Compound I-27] | 4.00 to 5.00 |
| Cn1cncc1-c1cc(NC(=O)c2cc(F)cc(C(F)(F)F)c2)c2c(c1)C(=O)NC2c1cc(F)ccc1Cl (centres unmarked) [Compound I-1272] | ≥ 7.00 |
| CCn1cc(-c2cc(NC(=O)c3cc(F)cc(C(F)(F)F)c3)c3c(n2)C(=O)N[C@H]3c2cc(F)ccc2Cl)ccc1=O [Compound I-615] | ≥ 7.00 |
| O=C(Nc1cccc2c(=O)[nH]n(Cc3ccccc3)c12)c1csc2ccccc12 [Compound I-118] | 4.00 to 5.00 |
| Cc1cnccc1-c1cc(NC(=O)c2cc(F)cc(C(F)(F)F)c2)c2c(c1)C(=O)N[C@@H]2c1cc(F)ccc1Cl (stereo in doubt) [Compound I-1011] | 5.00 to 6.00 |
| N#CC1(CNc2cc(NC(=O)c3cc(F)cc(C(F)(F)F)c3)c3c(c2)C(=O)N[C@@H]3c2cc(F)ccc2Cl)CC1 [Compound I-869] | 6.30 to 7.00 |
| Cc1cnccc1-c1cc(NC(=O)c2cc(F)cc(C(F)(F)F)c2)c2c(c1)C(=O)NC2c1cc(F)ccc1Cl (centres unmarked) [Compound I-890] | ≥ 7.00 |
| CNC(=O)c1cc(NC(=O)c2cc(F)cc(C(F)(F)F)c2)c2c(c1)C(=O)N[C@H]2c1ccccc1C [Compound I-212] | ≥ 7.00 |
| COC(=O)c1cc(NC(=O)c2cc(F)cc(C(F)(F)F)c2)c2c(c1)C(=O)NC2c1cc(F)ccc1Cl (centres unmarked) [Compound I-373] | ≥ 7.00 |
| Cc1ccccc1C1NC(=O)c2cccc(Nc3nc(C)c4ccccc4n3)c21 (centres unmarked) [Compound I-28] | 4.00 to 5.00 |
| Cc1ccccc1C1NC(=O)c2cccc(NC(=O)N3CCNC(C(F)(F)F)C3)c21 (racemic) [Compound I-60] | 4.00 to 5.00 |
| O=C(Nc1cc(N2CC3CNC(=O)C3C2)cc2c1C(c1cc(F)ccc1Cl)NC2=O)c1cc(F)cc(C(F)(F)F)c1 (centres unmarked) [Compound I-1309] | ≥ 7.00 |
| Cc1ccccc1C1NC(=O)c2cccc(NC(=O)c3cc(C(F)(F)F)ccc3F)c21 (centres unmarked) [Compound I-369] | 5.00 to 6.00 |

| SMILES | pIC50 |
| --- | --- |
| Cc1ccccc1C1NC(=O)c2cccc(NC(=O)c3cccc(C(F)(F)F)c3F)c21 (centres unmarked) [Compound I-12] | 4.00 to 5.00 |
| O=C(Nc1cc(-c2ccc3ncnn3c2)cc2c1C(c1cc(F)ccc1Cl)NC2=O)c1cc2ccccc2[nH]1 (centres unmarked) [Compound I-1609] | 5.00 to 6.00 |
| CC(c1cc(NC(=O)c2cc(F)cc(C(F)(F)F)c2)c2c(c1)C(=O)NC2c1cc(F)ccc1Cl)S(C)(=O)=O (centres unmarked) [Compound I-1292] | ≥ 7.00 |
| O=C(Nc1cc(-c2cn3ncnc3cn2)cc2c1C(c1cc(F)ccc1Cl)NC2=O)c1cc(F)cc(C(F)(F)F)c1 (centres unmarked) [Compound I-1335] | ≥ 7.00 |
| COCc1cc(F)cc(C(=O)Nc2cc(Br)cc3c2C(c2cc(F)ccc2Cl)NC3=O)c1 (centres unmarked) [Compound I-1316] | 5.00 to 6.00 |
| O=C(Nc1cc(-c2ccc(=O)n(C3CC3)c2)cc2c1[C@H](c1cc(F)ccc1Cl)NC2=O)c1cc(F)cc(C(F)(F)F)c1 [Compound I-745] | ≥ 7.00 |
| O=C(Nc1cc(CC2COC2)cc2c1C(c1cc(F)ccc1Cl)NC2=O)c1cc(F)cc(C(F)(F)F)c1 (centres unmarked) [Compound I-1279] | ≥ 7.00 |
| O=C(Nc1cc(-c2ccc3nc(Cl)nn3c2)cc2c1C(c1cc(F)ccc1Cl)NC2=O)c1cc(F)cc(C(F)(F)F)c1 (centres unmarked) [Compound I-1575] | ≥ 7.00 |
| O=C1NC(c2c(F)cccc2F)c2c(NC(=O)c3nsc4ccccc34)cccc21 (centres unmarked) [Compound I-84] | 5.00 to 6.00 |
| NCc1ncc(NC(=O)c2cc(F)cc(C(F)(F)F)c2)c2c1C(=O)NC2c1cc(F)ccc1Cl (centres unmarked) [Compound I-480] | 6.00 to 6.30 |
| O=C(Nc1cc(CS(=O)(=O)N2CCOCC2)cc2c1C(c1cc(F)ccc1Cl)NC2=O)c1cc(F)cc(C(F)(F)F)c1 (centres unmarked) [Compound I-1364] | ≥ 7.00 |
| O=C(Nc1cc(OS(=O)(=O)F)cc2c1C(c1cc(F)ccc1Cl)NC2=O)c1cc(F)cc(C(F)(F)F)c1 (centres unmarked) [Compound I-483] | ≥ 7.00 |
| Nc1ncncc1-c1cc(NC(=O)c2cc(F)cc(C(F)(F)F)c2)c2c(c1)C(=O)NC2c1cc(F)ccc1Cl (centres unmarked) [Compound I-1106] | ≥ 7.00 |
| Nc1cc(-c2cc(NC(=O)c3cc(F)cc(C(F)(F)F)c3)c3c(c2)C(=O)NC3c2cc(F)ccc2Cl)ncn1 (centres unmarked) [Compound I-1089] | ≥ 7.00 |
| O=C(Nc1cc(B(O)O)cc2c1C(c1cc(F)ccc1Cl)NC2=O)c1cc(F)cc(C(F)(F)F)c1 (centres unmarked) [Compound I-362] | ≥ 7.00 |
| CC(C)(O)c1cc(NC(=O)c2cc(F)cc(C(F)(F)F)c2)c2c(c1)C(=O)NC2c1ccccc1Cl (centres unmarked) [Compound I-439] | 6.30 to 7.00 |
| C=Cc1ccc(NC(=O)c2nsc3ccccc23)c2c1C(=O)NC2c1ccccc1C (centres unmarked) [Compound I-205] | 6.30 to 7.00 |
| C=CCCNC(=O)c1cc(NC(=O)c2cc(F)cc(C(F)(F)F)c2)c2c(c1)C(=O)NC2c1cc(F)ccc1Cl (centres unmarked) [Compound I-1422] | ≥ 7.00 |
| O=C(Nc1cc(-c2cnc3nccn3c2)cc2c1[C@@H](c1cc(F)ccc1Cl)NC2=O)c1cc(F)cc(C(F)(F)F)c1 [Compound I-883] | 5.00 to 6.00 |

The next lines start with the values.

| pIC50 | SMILES |
| --- | --- |
| 5.00 to 6.00 | O=C1NC(c2cc(F)ccc2Cl)c2c(NC(=O)N3CCCCC3)cc(-c3ccc4ncnn4c3)cc21 (centres unmarked) [Compound I-1663] |
| 5.00 to 6.00 | O=C(Nc1cccc2c1[C@H](C13C[C@H]4C[C@@H](C1)C[C@@H](C3)C4)NC2=O)c1cc(F)cc(C(F)(F)F)c1 (racemic) [Compound I-2075] |
| 5.00 to 6.00 | O=C(Nc1cc(-c2ccc3ncnn3c2)cc2c1C(c1cc(F)ccc1Cl)NC2=O)C(=O)c1ccccc1 (centres unmarked) [Compound I-1730] |
| 4.00 to 5.00 | NS(=O)(=O)c1cc(-c2ccc3ncnn3c2)cc2c1C(c1cc(F)ccc1Cl)NC2=O (centres unmarked) [Compound I-1970] |
| 4.00 to 5.00 | O=C(Nc1cccc2c1[C@@H](C1CCC[C@H](O)C1)NC2=O)c1cc(F)cc(C(F)(F)F)c1 (single isomer, unassigned) [Compound I-2225] |
| ≥ 7.00 | O=C(Nc1cc(-c2cc(F)c3ncnn3c2)cc2c1[C@H](c1cc(F)ccc1Cl)NC2=O)c1cc(F)cc(C(F)(F)F)c1 [Compound I-1704] |
| 5.00 to 6.00 | O=C1N[C@@H](c2cc(F)ccc2Cl)c2c(NC(=O)N3C[C@@](O)(C(F)(F)F)c4cc(F)ccc43)cc(N3CCOC3=O)cc21 (single isomer, unassigned) [Compound I-2675] |
| 5.00 to 6.00 | O=C1NC(c2cc(F)ccc2Cl)c2c(NC(=O)C3CCCC(F)(F)C3)cc(-c3ccc4ncnn4c3)cc21 (centres unmarked) [Compound I-1750] |
| 5.00 to 6.00 | Nc1cc(NC(=O)N2C[C@H](O)c3ccccc32)c2c(c1)C(=O)N[C@@H]2c1cc(F)ccc1Cl (single isomer, unassigned) [Compound I-2130] |
| ≥ 7.00 | N#Cc1cnc2cnc(-c3cc(NC(=O)c4cc(F)cc(C(F)(F)F)c4)c4c(c3)C(=O)NC4c3cc(F)ccc3Cl)cn12 (centres unmarked) [Compound I-1767] |
| 6.00 to 6.30 | O=C1N[C@@H](c2cc(F)ccc2Cl)c2c(NC(=O)[C@@H]3CCC[C@H](C(F)(F)F)C3)cc(-c3ccc4ncnn4c3)cc21 [Compound I-2030] |
| 5.00 to 6.00 | O=C1N[C@@H](c2cc(F)ccc2Cl)c2c(NC(=O)N3C[C@](O)(C(F)F)c4cc(F)ccc43)cc(Cl)cc21 (single isomer, unassigned) [Compound I-2590] |
| ≥ 7.00 | O=C(Nc1cc(-c2ccc3ncnn3n2)cc2c1[C@H](c1cc(F)ccc1Cl)NC2=O)c1cc(F)cc(C(F)(F)F)c1 [Compound I-1650] |
| 4.00 to 5.00 | C[C@H]([C@H]1C[C@H](O)CN1C(=O)Nc1cccc2c1[C@H](c1cc(F)ccc1Cl)NC2=O)C(F)(F)F (single isomer, unassigned) [Compound I-2379] |
| 5.00 to 6.00 | O=C1N[C@H](c2cc(F)ccc2Cl)c2c(NC(=O)N3C[C@@H](O)c4c(F)cccc43)cccc21 (single isomer, unassigned) [Compound I-2145] |
| 6.30 to 7.00 | C[C@@H](C#N)Cn1cc(-c2cc(NC(=O)N3C[C@H](O)c4cc(F)ccc43)c3c(c2)C(=O)N[C@@H]3c2cc(F)ccc2Cl)cn1 (single isomer, unassigned) [Compound I-2501] |
| 4.00 to 5.00 | CCC1CCN(C(=O)Nc2cccc3c2C(c2cc(F)ccc2Cl)NC3=O)C1 (centres unmarked) [Compound I-2420] |
| 4.00 to 5.00 | O=C1NC(c2cc(F)ccc2Cl)c2c(Cn3ccccc3=O)cc(-c3ccc4ncnn4c3)cc21 (centres unmarked) [Compound I-1980] |
| ≥ 7.00 | [2H]c1nc2ccc(-c3cc(NC(=O)c4cc(F)cc(C(F)(F)F)c4)c4c(c3)C(=O)N[C@H]4c3cc(F)ccc3Cl)cn2n1 (stereo in doubt) [Compound I-1785] |
| 4.00 to 5.00 | O=C1N[C@H](c2cc(F)ccc2Cl)c2c(NC(=O)[C@@H]3CCC[C@H](OC(F)(F)F)C3)cccc21 (single isomer, unassigned) [Compound I-2213] |
| 5.00 to 6.00 | N#Cc1cc(NC(=O)N2C[C@](O)(C(F)(F)F)c3ccccc32)c2c(c1)C(=O)N[C@H]2c1cc(F)ccc1Cl (single isomer, unassigned) [Compound I-2565] |
| 6.00 to 6.30 | O=C1N[C@@H](c2cc(F)ccc2Cl)c2c(NC(=O)[C@H]3C[C@H](O)C[C@@H](C(F)(F)F)C3)cc(Br)cc21 (single isomer, unassigned) [Compound I-2179] |
| ≥ 7.00 | O=C(Nc1cc(-c2cnc3ncc(Cl)n3c2)cc2c1[C@H](c1cc(F)ccc1Cl)NC2=O)c1cc(F)cc(C(F)(F)F)c1 [Compound I-1985] |
| 5.00 to 6.00 | O=C1N[C@H](c2cc(F)ccc2Cl)c2c(NC(=O)N3C[C@@](O)(C(F)(F)F)c4cc(F)ccc43)cc(C3COC3)cc21 (single isomer, unassigned) [Compound I-2654] |
